From patent publication US20070129334A1, “Orally Active Purine-Based Inhibitors of Heat Shock Protein 90” (CONFORMA THERAPEUTICS CORPORATION, priority 2001, published 2007)
Where two headings read alike, the source gives them in different places. Each block holds one molecule with its values, some of them ahead of it.

Experiments:
[1] = Solubility in simulated gastric fluid, simulated intestinal fluid and serum; assay type: physicochemical; conditions: for Gastric (PH 2.0): solubility in simulated gastric fluid; for Serum (PH 7.4): solubility in serum; for Intestinal (PH 6.5): solubility in simulated intestinal fluid
[2] = tested on: HER-2 receptor (Hsp90 client) in MCF-7 cells; assay: HER-2 degradation assay (MCF-7 cells, 16 h, phycoerythrin-labeled antibody and flow cytometry); assay type: cell-based, human
[3] = Homo sapiens, MCF7, read-out: HER-2
[4] = Homo sapiens, MCF7, MCF-7 cells, 16 h, average of at least three observations, read-out: HER-2 IC50
[5] = Homo sapiens, MCF7, read-out: HER-2 IC50(nM)
[6] = Homo sapiens, MCF7, benzothiozole moiety SAR, MCF-7, read-out: HER-2 IC50

SMILES: CC(=O)OCCn1c(Sc2nc3cncc(Br)c3s2)nc2c(N)ncnc21 [Compound 204, Acetic acid 2-[6-amino-8-(7-bromo-thiazole[4,5-c]pyridin-2-ylsulfanyl)-purin-9-yl]-ethyl ester]
Gastric (PH 2.0) [1]: 98.5 µg/mL | IC50 ([2]; read-out: HER-2): 30 nM

SMILES: CC(=O)OCCCn1c(Sc2nc3cncc(Cl)c3s2)nc2c(N)ncnc21 [Compound 205, Acetic acid 3-[6-amino-8-(7-chloro-thiazolo[4,5-c]pyridin-2-ylsulfanyl)-purin-9-yl]-propyl ester]
IC50 [2, 3]: 170 nM

SMILES: CCCCn1c(Cc2cc(OC)ccc2I)nc2c(N)ncnc21 [Compound 20, 9-Butyl-8-(2-iodo-5-methoxy-benzyl)-9H-purin-6-ylamine]
IC50 [2, 4]: 5000 nM

SMILES: CCCCn1c(Sc2nc3cc(Cl)ccc3s2)nc2c(N)ncnc21 [Compound 180, 9-Butyl-8-(5-chloro-benzothiazol-2-ylsulfanyl)-9H-purine-6-ylamine]
IC50 [2, 6]: 20000 nM

SMILES: CCCCn1c(Sc2nc3cccc(Br)c3s2)nc2c(N)ncnc21 [Compound 171, 8-(7-Bromo-benzothiazol-2-ylsulfanyl)-9-butyl-9H-purine-6-ylamine]
IC50 [2, 5]: 330 nM

SMILES: CCCCn1c(Sc2nc3cccc(OC)c3s2)nc2c(N)ncnc21 [Compound 173, 9-Butyl-8-(7-methoxy-benzothiazol-2-ylsulfanyl)-9H-purine-6-ylamine]
Serum (PH 7.4) [1]: 18 µg/mL | Gastric (PH 2.0) [1]: 35 µg/mL | Intestinal (PH 6.5) [1]: 2 µg/mL | IC50 [2, 5]: 190 nM

SMILES: CCCCn1c(Sc2nc3cccc(OCC)c3s2)nc2c(N)ncnc21 [Compound 174, 9-Butyl-8-(7-ethoxy-benzothiazol-2-ylsulfanyl)-9H-purine-6-ylamine]
IC50 [2, 6]: 100000 nM

SMILES: C#CCCCn1c(Sc2cc(OC)ccc2I)nc2c(N)nc(F)nc21 [Compound 68, 2-Fluoro-8-(2-iodo-5-methoxy-phenylsulfanyl)-9-pent-4-ynyl-9H-purin-6-ylamine]
IC50 [2, 4]: 360 nM

SMILES: CCCCn1c(Cc2cc(OC)ccc2Br)nc2c(N)ncnc21 [Compound 23, 8-(2-Bromo-5-methoxy-benzyl)-9-butyl-9H-purin-6-ylamine]
IC50 [2, 4]: 8000 nM

SMILES: CCCCn1c(Sc2nc3cccc(F)c3s2)nc2c(N)ncnc21 [Compound 175, 9-Butyl-8-(7-fluoro-benzothiazol-2-ylsulfanyl)-9H-purine-6-ylamine]
IC50 [2, 5]: 200 nM

SMILES: CCCCn1c(Sc2nc3cncc(Br)c3s2)nc2c(N)ncnc21 [Compound 207]
IC50 [2, 3]: 400 nM

SMILES: CCCCn1c(Sc2cc(OC)ccc2OC)nc2c(N)ncnc21 [Compound 43, 9-Butyl-8-(2,5-dimethoxy-phenylsulfanyl)-9H-purin-6-ylamine]
IC50 [2, 4]: 3500 nM

SMILES: CCCCn1c(Sc2nc3ccc(Cl)c(Cl)c3s2)nc2c(N)ncnc21 [Compound 185, 9-Butyl-8-(6,7-dichloro-benzothiazol-2-ylsulfanyl)-9H-purine-6-ylamine]
IC50 [2, 6]: 25000 nM

SMILES: CCCCn1c(Sc2nc3cncc(Cl)c3s2)nc2c(N)ncnc21 [Compound 177, 9-Butyl-8-(7-chloro-thiazole[4,5-c]pyridin-2-ylsulfanyl)-9H-purin-6-ylamine]
IC50 ([2]; pyridothiazole moiety SAR, HER-2 degradation activity, read-out: HER-2): 280 nM

SMILES: CCCCn1c(Sc2nc3cccc(C)c3s2)nc2c(N)ncnc21 [Compound 172, 9-Butyl-8-(7-methyl-benzothiazol-2-ylsulfanyl)-9H-purine-6-ylamine]
IC50 [2, 5]: 300 nM

SMILES: CCCCn1c(Sc2nc3c(Cl)cccc3s2)nc2c(N)ncnc21 [Compound 181, 9-Butyl-8-(4-chloro-benzothiazol-2-ylsulfanyl)-9H-purine-6-ylamine]
IC50 [2, 6]: 15000 nM

SMILES: CCCCn1c(Sc2nc3ccccc3s2)nc2c(N)ncnc21 [Compound 178, 8-(Benzothiazol-2-ylsulfanyl)-9-butyl-9H-purine-6-ylamine]
IC50 [2, 6]: 5000 nM

SMILES: CCCCn1c(Sc2nc3ccc(Cl)cc3s2)nc2c(N)ncnc21 [Compound 179, 9-Butyl-8-(6-chloro-benzothiazol-2-ylsulfanyl)-9H-purine-6-ylamine]
IC50 [2, 6]: 7000 nM

Now from value to molecule:

IC50 [2, 3]: 150 nM
SMILES: Nc1ncnc2c1nc(Sc1nc3cccc(Cl)c3s1)n2CCCCO [Compound 246, 4-[6-Amino-8-(7-chloro-benzothiazol-2-ylsulfanyl)-purin-9-yl]-butan-1-ol]

Serum (PH 7.4) [1]: 198.7 µg/mL | Intestinal (PH 6.5) [1]: 137.7 µg/mL | IC50 [2, 3]: 150 nM
SMILES: CC(C)(C)NCCCn1c(Sc2nc3cccc(Cl)c3s2)nc2c(N)ncnc21 [Compound 253, 9-(3-tert-Butylamino-propyl)-8-(7-chloro-benzothiazol-2-ylsulfanyl)-9H-purin-6-yl amine]

IC50 [2, 3]: 180 nM | IC50 [2, 5]: 180 nM
SMILES: CCCCn1c(Sc2nc3cccc(Cl)c3s2)nc2c(N)ncnc21 [Compound 232, 9-Butyl-8-(7-chloro-benzothiazol-2-ylsulfanyl)-9H-purine-6-ylamine]

IC50 [2, 3]: 150 nM
SMILES: Nc1ncnc2c1nc(Sc1nc3cccc(Cl)c3s1)n2CCCO [Compound 245]

IC50 [2, 3]: 200 nM
SMILES: CCn1c(Sc2nc3cccc(Cl)c3s2)nc2c(N)ncnc21 [Compound 229, 9-ethyl-8-(7-chloro-benzothiazol-2-ylsulfanyl)-9H-purine-6-ylamine]

Serum (PH 7.4) [1]: 4.9 µg/mL | Intestinal (PH 6.5) [1]: 6 µg/mL | IC50 [2, 3]: 35 nM
SMILES: CC(C)(C)CNCCn1c(Sc2nc3cccc(Cl)c3s2)nc2c(N)ncnc21 [Compound 247, 8-(7-Chloro-benzothiazol-2-ylsulfanyl)-9-[2-(2,2-dimethyl-propylamino)-ethyl]-9H-purin-6-yl amine]

Gastric (PH 2.0) [1]: 46 µg/mL | Intestinal (PH 6.5) [1]: 3 µg/mL | IC50 [2, 3]: 130 nM
SMILES: CC(=O)OCCCCn1c(Sc2nc3cccc(Cl)c3s2)nc2c(N)ncnc21 [Compound 243, Acetic acid 4-[6-amino-8-(7-chloro-benzothiazol-2-ylsulfanyl)-purin-9-yl]-butyl ester]

IC50 [2, 3]: 700 nM
SMILES: CCCCCn1c(Sc2nc3cccc(Cl)c3s2)nc2c(N)ncnc21 [Compound 233, 9-Pentyl-8-(7-chloro-benzothiazol-2-ylsulfanyl)-9H-purine-6-ylamine]

IC50 [2, 3]: 300 nM
SMILES: Nc1ncnc2c1nc(Sc1nc3cccc(Cl)c3s1)n2CCO [Compound 244, 2-[6-Amino-8-(7-chloro-benzothiazol-2-ylsulfanyl)-purin-9-yl]-ethanol]

IC50 [2, 3]: 170 nM
SMILES: CC(C)NCCCn1c(Sc2nc3cccc(Cl)c3s2)nc2c(N)ncnc21 [Compound 266, 8-(7-Chloro-benzothiazol-2-ylsulfanyl)-9-(3-isopropylamino-propyl)-9H-purin-6-yl amine]

IC50 [2, 3]: 150 nM
SMILES: CC(=O)OCCn1c(Sc2nc3cccc(Cl)c3s2)nc2c(N)ncnc21 [Compound 241, Acetic acid 2-[6-amino-8-(7-chloro-benzothiazol-2-ylsulfanyl)-purin-9-yl]-ethyl ester]

IC50 [2, 3]: 250 nM
SMILES: CCCn1c(Sc2nc3cccc(Cl)c3s2)nc2c(N)ncnc21 [Compound 231, 9-Propyl-8-(7-chloro-benzothiazol-2-ylsulfanyl)-9H-purine-6-ylamine]

IC50 [2, 3]: 250 nM
SMILES: Nc1ncnc2c1nc(Sc1nc3cccc(Cl)c3s1)n2CCN1CCOCC1 [Compound 270, 8-(7-Chloro-benzothiazol-2-ylsulfanyl)-9-(2-morpholin-4-yl-ethyl)-9H-purin-6-ylamine]

IC50 [2, 3]: 140 nM
SMILES: CC(C)(C)NCCn1c(Sc2nc3cccc(Cl)c3s2)nc2c(N)ncnc21 [Compound 265, 9-(2-tert-Butylamino-ethyl)-8-(7-chloro-benzothiazole-2-ylsulfanyl)-9H-purin-6-yl amine]
